# Several values for one entry are separate records, joined by “and”; a condition that tells them apart may be missing. Identical values can stand only once. Like-named read-outs stand apart in the source and are kept apart here.
# Tests used:
# [1] = tested on: T11 syngeneic orthotopic breast cancer model; experiment: tumor treatment efficacy of cisplatin, T11 syngeneic model; format: in vivo, mice; settings: for median lifespan: control median 10 days; for tumor growth inhibition: two doses
# Procedure: (§1) Iontophoretic delivery of cisplatin in was tested in both SUM149 cell xenograft and T11 syngeneic orthotopic breast cancer models. For both models, the efficacies of device cisplatin, IV cisplatin, device+IV cisplatin, device saline, and IV saline were compared.
# (§2) For the SUM149 xenograft model, once the tumors reached ˜50 mm^3, the mice were treated with device cisplatin, IV cisplatin (5 mg/kg), device+IV cisplatin (5 mg/kg), device saline, or IV saline every week for four total doses, as shown in FIGS. 35A and 35B. […] For the T11 model, mice received two doses of device cisplatin, IV cisplatin (5 mg/kg), device+IV cisplatin (5 mg/kg), device saline, or IV saline every week for two total doses beginning five days after inoculation (˜20 mm^3), as shown in FIGS. 35C and 35D. The number of treatments varied between tumor models because of the differences in tolerability of treatments.
# [2] = ex vivo cisplatin transport into human skin, modified Franz diffusion cell; settings: 1 mA for 25 minutes, ~1 mm thick skin, ICP-MS
# Procedure: Ex vivo drug transport studies were also conducted by transporting cisplatin into ˜1 mm thick human skin and were evaluated using a modified Franz diffusion cell with the test drug transport device directly above the skin instead of a donor chamber. During the testing, 1 or 0 mA of current was applied for 25 minutes, and the skin and solution were snap frozen, processed, and analyzed by inductively coupled plasma-mass spectrometry (ICP-MS).
# [3] = biodistribution/PK of device and/or IV cisplatin in orthotopic SUM149 cell xenograft model; format: in vivo, mice
# Procedure: Device delivery of cisplatin was evaluated using an orthotopic SUM149 cell xenograft model of breast cancer. In addition to studying iontophoretic delivery as compared to IV delivery of the cisplatin, concurrent device and IV delivery was added as an arm of the study based upon the low systemic exposure of cisplatin. In the study, a single treatment was administered after adhesion of the device to the skin above the tumor.
# [4] = tested on: T11 syngeneic orthotopic breast cancer models; experiment: combined cisplatin and radiation efficacy, T11 syngeneic model; format: in vivo, mice; settings: single dose
# Procedure: Using T11 syngeneic orthotopic breast cancer models, radiotherapy was tested as an alternative and/or additional treatment method to device and IV cisplatin to compare the therapeutic effects of the various treatments. Mice received a single dose of radiation (10 Gy), device cisplatin, device cisplatin+radiation (10 Gy), IV cisplatin (5 mg/kg), IV cisplatin+radiation (10 Gy), device+IV cisplatin (5 mg/kg), and device cisplatin+IV cisplatin (5 mg/kg)+radiation (10 Gy) five days after inoculation (˜20 mm^3).
# [5] = tested on: SUM149 cell xenograft orthotopic breast cancer model; format: in vivo, mice; settings: for median lifespan: control median 49 days; for tumor growth inhibition: weekly, four doses
# Procedure: as §1, §2
# in vivo = settings: mouse
# Source text: Orthotopic PDX models of pancreatic cancer were used to characterize iontophoretic delivery of gemcitabine with respect to pharmacokinetics (PK).
# In the present example, IV delivery of gemcitabine was compared to local iontophoretic delivery of gemcitabine.
# [6] = tested on: orthotopic PDX model of pancreatic cancer; settings: for mice with tumor regression: twice a week up to 7 weeks
# Procedure: Iontophoretic devices were surgically implanted into orthotopic PDX tumors when their size reached ˜200 mm^3, as determined by high resolution 3D ultrasound. Mice were treated twice a week for up to 7 weeks with device gemcitabine (20 mg/mL), device saline (0.9% NaCl), IV Gemcitabine (80 mg/kg), or IV saline. Tumor volumes were measured by volume displacement after completion of the scheduled treatment due to the interference of implanted devices with ultrasound imaging.
# [7] = PK study of device versus IV gemcitabine in non-tumor bearing dogs; format: in vivo
# Procedure: Since there was no readily available large animal model for pancreatic cancer, a representative non-tumor bearing large animal model (Dogs) for humans was used. A laparotomy was performed and iontophoretic devices (shown in FIG. 41) were sutured directly onto the pancreas. A constant current of 10 mA was applied for 60 minutes using either 40 or 10 mg/mL gemcitabine (n=5, per group). […] For the IV treatment arm (n=4, per group), clinical protocol was followed for gemcitabine administration, which was an infusion of a 1 g/m^2 dose for thirty minutes, and the animal was euthanized 60 minutes after the start of the infusion. The plasma was sampled at 15 minute increments before, during, and after therapy. After therapy, the tissues were removed, flash-frozen, and analyzed by UV-HPLC.
# [8] = ex vivo drug transport in pancreatic cancer PDX tumors; format: in vitro ADME; settings: 2 mA for 10 minutes, device sutured onto ex vivo PDX tumor, UV-HPLC
# Procedure: Ex vivo drug transport studies were conducted using pancreatic cancer patient-derived xenografts (PDXs). Test drug transport devices were sutured onto the ex vivo PDX tumors and a counter electrode was placed on the contralateral side of the tumor. 2 or 0 mA of current was applied for 10 minutes and the tumors were subsequently snap frozen, processed, and analyzed by UV-high performance liquid chromatography (HPLC).
# [9] = device+IV cisplatin (5 mg/kg) + radiation (10 Gy)
smiles,measurement,setting,value
[NH2][Pt]([NH2])([Cl])[Cl] [cisplatin],median lifespan,[1]; IV cisplatin (5 mg/kg),22 days
same,tumor growth inhibition,"[1]; device cisplatin, similar to IV cisplatin until day 9",significant tumor growth inhibition
same,median lifespan,[1]; device cisplatin,20 days
same,tumor growth inhibition,[1]; device+IV cisplatin (5 mg/kg),significant tumor growth inhibition
same,median lifespan,[1]; device+IV cisplatin (5 mg/kg),32 days
same,fold increase in platinum transported into the human skin versus passive diffusion (0 mA),[2],11.4 fold
same,Platinum Plasma Exposure (AUC),[3]; Device + IV (5 mg/kg) Delivery,10.65 µg·h/mL
same,Platinum Plasma Exposure (AUC),"[3]; Device Delivery, single treatment",1.99 µg·h/mL
same,Platinum Plasma Exposure (AUC),[3]; IV (5 mg/kg) Delivery,9.91 µg·h/mL
same,survival on addition of radiation,[4]; IV cisplatin (5 mg/kg) + radiation (10 Gy),significantly improved survival
same,survival on addition of radiation,[4]; device cisplatin + radiation (10 Gy),significantly improved survival
same,survival on addition of radiation,[4]; [9],significantly improved survival
same,tumor growth inhibition and survival versus other groups,[4]; [9],outperformed all other treatment groups
same,median lifespan,[5]; IV cisplatin (5 mg/kg),68 days
same,"tumor γH2AX staining, device cisplatin versus IV cisplatin","[5]; device cisplatin, tumors post treatment",almost equivalent γH2AX staining
same,tumor growth inhibition,"[5]; device cisplatin, similar to IV cisplatin until day 42",significant tumor growth inhibition
same,median lifespan,[5]; device cisplatin,60 days
same,tumor growth inhibition,[5]; device+IV cisplatin (5 mg/kg),significant tumor growth inhibition
same,median lifespan,[5]; device+IV cisplatin (5 mg/kg),> 100 days
same,tumor γH2AX staining,"[5]; device+IV cisplatin, tumors post treatment",greater γH2AX staining
same,skin of the mice after device treatment,"[5]; mouse, in vivo",no scarring or deformation
same,tolerability by kidney γH2AX staining compared to IV cisplatin and device+IV cisplatin,"[5]; mouse, in vivo",better tolerated
Nc1ccn([C@@H]2O[C@H](CO)[C@@H](O)C2(F)F)c(=O)n1 [gemcitabine],gemcitabine in plasma,in vivo,no detectable gemcitabine
same,gemcitabine tumor AUC,in vivo,348.07 µg·h/mL
same,distance away from the devices at which gemcitabine was detected,in vivo; 0 h,4.7 mm
same,distance away from the devices at which gemcitabine was detected,in vivo; 3 h,3 mm
same,distance away from the devices at which gemcitabine was detected,in vivo; 6 h,3 mm
same,AUC,"in vivo; iv, 80 mg/kg",65200 ng·h/mL
same,gemcitabine tumor AUC,"in vivo; iv, 80 mg/kg",30.78 µg·h/mL
same,mean log2-fold change in tumor volume,[6]; IV gemcitabine (80 mg/kg),1.1
same,mice with tumor regression,[6]; IV gemcitabine (80 mg/kg),0/7
same,Ki-67 staining of tumors post treatment versus IV gemcitabine and saline arms,[6]; device gemcitabine,decrease in Ki-67 staining
same,mean log2-fold change in tumor volume,[6]; device gemcitabine (20 mg/mL),−0.8
same,mice with tumor regression,"[6]; device gemcitabine (20 mg/mL), 52-day study",7 out of 7 and 7/7
same,"tolerability (body weight gain, alanine transaminase, lipase) compared to IV gemcitabine","[6]; mouse, in vivo",better tolerated
same,gemcitabine in plasma,[7]; IV infusion 1 g/m^2 for thirty minutes,detected in the plasma of all dogs
same,distance of gemcitabine transport away from the electrode,"[7]; device, 10 mg/mL",6.3 mm
same,fold increase in concentration of gemcitabine in the normal canine pancreas compared to IV administration,"[7]; device, 10 mg/mL",2.0 fold
same,drug in plasma,"[7]; device, 10 mg/mL, 10 mA for 60 minutes",no drug detected
same,distance of gemcitabine transport away from the electrode,"[7]; device, 40 mg/mL",9.6 mm
same,fold increase in concentration of gemcitabine in the normal canine pancreas compared to IV administration,"[7]; device, 40 mg/mL",7.1 fold
same,dogs with detectable levels of gemcitabine in plasma,"[7]; device, 40 mg/mL, 10 mA for 60 minutes",2 out of 5
same,fold lower plasma gemcitabine levels than the IV treatment,"[7]; device, 40 mg/mL, dogs with detectable levels",at least 25 fold
same,fold increase in drug transport versus passive diffusion control (0 mA),[8],9.1 fold
